Results taken from patent publication US5747504A, “Method of treating cardiac insufficiency using angiotensin-converting enzyme inhibitors” (priority 1984, dated 1998).

Legend:
Assay type in all cases: in vivo
ACE in the heart = experiment: Inhibition of ACE in the heart after oral treatment of spontaneously hypertensive rats
Experimental: It is known that converting enzyme inhibitors are capable of inhibiting the enzyme not only in the serum but also in various tissues, and especially also in the heart.
In contrast, with 30 mg/kg of N-(1-carbethoxy-3-phenyl-propyl)-S-alanyl-S-proline (enalapril) perorally, already no further significant inhibition is observed after more than 6 hours.

isolated heart [1] = experiment: Postganglionic sympathetic stimulation on the isolated heart after oral pretreatment; settings: oral pretreatment with 1 mg/kg perorally, rabbits
Source text: Postganglionic sympathetic stimulation on the isolated heart leads, via increased catecholamine release, to an increase in heart rate and contractility and to a decrease in coronary blood flow. […] These effects act together to protect the incompetent heart.

isolated heart [2] = experiment: Effect of angiotensin I and bradykinin on coronary blood flow in the isolated heart after oral pretreatment; settings: isolated heart of rabbits, guineapigs and rats
Experimental: Angiotensin I decreases whilst bradykinin increases the coronary blood flow in the isolated heart of rabbits, guineapigs and rats. […] The same effect can only be achieved with 30 mg/kg of enalapril.

[3] = oral pretreatment with 1 mg/kg perorally

| SMILES | inhibition of the ACE in the heart at the end of treatment (ACE in the heart; chronic oral treatment for two weeks with 1 mg/kg) | duration of significant inhibition of the ACE in the heart (ACE in the heart; single oral dose of 1 mg/kg) | influence of postganglionic sympathetic stimulation on contractility (isolated heart [1]) | influence of postganglionic sympathetic stimulation on coronary blood flow (isolated heart [1]) | influence of postganglionic sympathetic stimulation on heart rate (isolated heart [1]) | action of bradykinin on coronary blood flow (isolated heart [2]; [3]) | effect of angiotensin I on coronary blood flow (isolated heart [2]; [3]) | duration of significant inhibition of the ACE in the heart (ACE in the heart; 30 mg/kg perorally) | inhibition of the ACE in the heart at the end of treatment (ACE in the heart; chronic oral treatment for two weeks with 30 mg/kg perorally) | action of bradykinin on coronary blood flow (isolated heart [2]; 30 mg/kg) | effect of angiotensin I on coronary blood flow (isolated heart [2]; 30 mg/kg) |
| --- | --- | --- | --- | --- | --- | --- | --- | --- | --- | --- | --- |
| CCOC(=O)[C@H](CCc1ccccc1)N[C@@H](C)C(=O)N1[C@H](C(=O)O)C[C@@H]2CCC[C@@H]21 [compound of the formula II, N-(1-S-carbethoxy-3-phenyl-propyl)-S-alanyl-cis-endo-2-azabicyclo[3,3,0]octane-3-S-carboxylic acid] | 55% | > 24 h | unaffected | significantly reduces | significantly reduces | increases | significantly reduces | – | – | – | – |
| CCOC(=O)[C@H](CCc1ccccc1)N[C@@H](C)C(=O)N1CCC[C@H]1C(=O)O [enalapril, N-(1-carbethoxy-3-phenyl-propyl)-S-alanyl-S-proline, reference compound] | – | – | – | – | – | – | – | ≤ 6 h | no inhibition is observed | same effect | same effect |
